The record followed here is patent US20250019376A1, “CHROMANE AMIDINE MONOBACTAM ANTIBIOTICS” (priority 2021, published 2025).

Conditions in all cases: lowest concentration inhibiting 95% of growth (OD600); with BLi relebactam 4 μg/mL; 22 hours, 35±2° C.
The subject of assay [1] is Klebsiella pneumoniae expressing KPC-1 (CL6569). The experiment in a line: Growth inhibitory concentration (OD600), K. pneumoniae CL6569. Format: cell-based. As for the experimental part: (§1) The concentrations of compounds required to inhibit the growth of various strains of bacteria were determined in an assay that assessed bacterial growth by measuring optical density at 600 nm (OD600). The bacterial strains tested included the clinical strains Escherichia co/i expressing NDM-1 (CLB30016), Klebsiella pneumoniae expressing KPC-1 (CL6569), Acinetobacter baumannii expressing TEM-1, AmpC, and Oxa-24/40 (CL6188) and Pseudomonas aeruginosa expressing AmpC (CL5701). All compounds were tested in the presence of a f3 lactamase inhibitor (BLi, Relebactam) in 384-well microplates.
(§2) The clinical strains were stored as frozen single use stocks, thawed and diluted into 1.1× cation-adjusted Mueller-Hinton 11 broth to achieve approximately 2×10^5 CFU/mL. Test compounds were dissolved in DMSO and diluted 1:50 in the assay, resulting in a final concentration range of 100 μM to 0.098 μM. On the day of the assay, 1 μL of test compound was added to the plate followed by 4 μL of 50 μg/mL BLi in MOPS buffer and 45 μL of diluted bacteria. Plates were centrifuged at 1000 rpm for 30 seconds, shaken at approximately 800 rpm for 1 minute, and incubated at 35±2° C. for 22 hours. The concentration of BLi used in the assay was 4 μg/mL. At the end of the incubation, absorbance at 600 nm was determined using a spectrophotometer. Inhibition was quantitated by identifying the lowest concentration of test compound that was required to inhibit […] of the growth of the bacteria.

The subject of assay [2] is Escherichia co/i expressing NDM-1 (CLB30016). The experiment in a line: Growth inhibitory concentration (OD600), E. coli CLB30016. Type of assay: cell-based, Escherichia coli. As for the experimental part: as §1, §2
Assay [3] concerns Pseudomonas aeruginosa expressing AmpC (CL5701). As to the kind of experiment: Growth inhibitory concentration (OD600), P. aeruginosa CL5701. Format: cell-based. As for the experimental part: as §1, §2
In assay [4] the test system is Acinetobacter baumannii expressing TEM-1, AmpC, and Oxa-24/40 (CL6188). Format: cell-based. The procedure:
as §1, §2

`CC1(C)[C@H](NC(=O)/C(=N\O[C@](C)(C(=O)O)[C@H]2CCc3cc(C(=N)N[C@H]4CC[C@H](N)CC4)ccc3O2)c2csc(N)n2)C(=O)N1OS(=O)(=O)O` [Compound 32, (S)-2-((R)-6-(N-((1r,4R)-4-aminocyclohexyl)carbamimidoyl)chroman-2-yl)-2-((((Z)-1-(2-aminothiazol-4-yl)-2-(((S)-2,2-dimethyl-4-oxo-1-(sulfooxy)azetidin-3-yl)amino)-2-oxoethylidene)amino)oxy)propanoic acid]: the “KP_CL6569 MITC95” value in assay [1] is 0.3906 µM. The “EC_CLB30016 MITC95” value in assay [2] turned out to be 3.125 µM. Also, the “PA_CL5701 MITC95” value in assay [3] came out at 1.563 µM. Also, the “AB_CL6188 MITC95” value in assay [4] was found to be 3.125 µM.

`CC1(C)[C@H](NC(=O)/C(=N\O[C@](C)(C(=O)O)[C@H]2CCc3cc(C(=N)N[C@]4(C)CC[C@@H](N)CC4)ccc3O2)c2csc(N)n2)C(=O)N1OS(=O)(=O)O` [Compound 71, (S)-2-((R)-6-(N-((1r,4R)-4-amino-1-methylcyclohexyl)carbamimidoyl)chroman-2-yl)-2-((((Z)-1-(2-aminothiazol-4-yl)-2-(((S)-2,2-dimethyl-4-oxo-1-(sulfooxy)azetidin-3-yl)amino)-2-oxoethylidene)amino)oxy)propanoic acid]: the “KP_CL6569 MITC95” value in assay [1] was 0.7813 µM. In addition, the “EC_CLB30016 MITC95” value in assay [2] stood at 9.375 µM. The “PA_CL5701 MITC95” value in assay [3] came to 1.563 µM. Further, the “AB_CL6188 MITC95” value in assay [4] worked out at 4.688 µM.

Take `CC1(C)[C@H](NC(=O)/C(=N\O[C@](C)(C(=O)O)[C@H]2CCc3cc(C(=N)N[C@H]4C[C@@](N)(CCO)C4)ccc3O2)c2csc(N)n2)C(=O)N1OS(=O)(=O)O` [Compound 87, (S)-2-((R)-6-(N-((1r,3R)-3-amino-3-(2-hydroxyethyl)cyclobutyl)carbamimidoyl)chroman-2-yl)-2-((((Z)-1-(2-aminothiazol-4-yl)-2-(((S)-2,2-dimethyl-4-oxo-1-(sulfooxy)azetidin-3-yl)amino)-2-oxoethylidene)amino)oxy)propanoic acid]: the “KP_CL6569 MITC95” value in assay [1] was determined as 0.3906 µM. The “EC_CLB30016 MITC95” value in assay [2] is 6.25 µM. For the same compound, the “PA_CL5701 MITC95” value in assay [3] is 1.563 µM. Besides, the “AB_CL6188 MITC95” value in assay [4] worked out at 4.688 µM.

In the case of `CC1(C)[C@H](NC(=O)/C(=N\O[C@](C)(C(=O)O)[C@H]2CCc3cc(C(=N)N[C@H]4C[C@](N)(C(O)CO)C4)ccc3O2)c2csc(N)n2)C(=O)N1OS(=O)(=O)O` (stereo partly drawn) [Compound 100, (S)-2-((R)-6-(N-((1S,3S)-3-amino-3-((R)-1,2-dihydroxyethyl)cyclobutyl)carbamimidoyl)chroman-2-yl)-2-((((Z)-1-(2-aminothiazol-4-yl)-2-(((S)-2,2-dimethyl-4-oxo-1-(sulfooxy)azetidin-3-yl)amino)-2-oxoethylidene)amino)-oxy)propanoic acid], the “KP_CL6569 MITC95” value in assay [1] stood at 0.7813 µM. Besides, the “EC_CLB30016 MITC95” value in assay [2] came to 6.25 µM. Further, the “PA_CL5701 MITC95” value in assay [3] was 1.563 µM. In addition, the “AB_CL6188 MITC95” value in assay [4] was 6.25 µM.

In the case of `CC1(C)[C@H](NC(=O)/C(=N\O[C@](C)(C(=O)O)[C@H]2CCc3cc(C(=N)N[C@H]4CC[C@](O)(CN)CC4)ccc3O2)c2csc(N)n2)C(=O)N1OS(=O)(=O)O` [Compound 59, (S)-2-((R)-6-(N-((1s,4S)-4-(aminomethyl)-4-hydroxycyclohexyl)carbamimidoyl)chroman-2-yl)-2-((((Z)-1-(2-aminothiazol-4-yl)-2-(((S)-2,2-dimethyl-4-oxo-1-(sulfooxy)azetidin-3-yl)amino)-2-oxoethylidene)amino)oxy)propanoic acid], in assay [1], the “KP_CL6569 MITC95” value was determined as 0.3906 µM. Besides, the “EC_CLB30016 MITC95” value in assay [2] came out at 12.5 µM. The “PA_CL5701 MITC95” value in assay [3] amounted to 1.563 µM. In addition, in assay [4], the “AB_CL6188 MITC95” value came out at 3.125 µM.

As to `CC1(C)[C@H](NC(=O)/C(=N\O[C@](C)(C(=O)O)[C@H]2CCc3cc(C(=N)N[C@H]4C[C@]5(CCNC5)C4)ccc3O2)c2csc(N)n2)C(=O)N1OS(=O)(=O)O` [Compound 22, (S)-2-((R)-6-(N-((2r,4S)-6-azaspiro[3.4]octan-2-yl)carbamimidoyl)chroman-2-yl)-2-((((Z)-1-(2-aminothiazol-4-yl)-2-(((S)-2,2-dimethyl-4-oxo-1-(sulfooxy)azetidin-3-yl)amino)-2-oxoethylidene)amino)oxy)propanoic acid], the “KP_CL6569 MITC95” value in assay [1] worked out at 0.3906 µM. Also, the “EC_CLB30016 MITC95” value in assay [2] turned out to be 3.125 µM. In assay [3], the “PA_CL5701 MITC95” value was 1.563 µM. Also, the “AB_CL6188 MITC95” value in assay [4] worked out at 3.125 µM.

For `CC1(C)[C@H](NC(=O)/C(=N\O[C@](C)(C(=O)O)[C@H]2CCc3cc(C(=N)N[C@H]4C[C@@](N)(C(O)CO)C4)ccc3O2)c2csc(N)n2)C(=O)N1OS(=O)(=O)O` (stereo partly drawn) [Compound 99, (S)-2-((R)-6-(N-((1R,3R)-3-amino-3-((R)-1,2-dihydroxyethyl)cyclobutyl)carbamimidoyl)chroman-2-yl)-2-((((Z)-1-(2-aminothiazol-4-yl)-2-(((S)-2,2-dimethyl-4-oxo-1-(sulfooxy)azetidin-3-yl)amino)-2-oxoethylidene)amino)oxy)propanoic acid], the “KP_CL6569 MITC95” value in assay [1] turned out to be 0.7813 µM. Besides, the “EC_CLB30016 MITC95” value in assay [2] was found to be 6.25 µM. Further, the “PA_CL5701 MITC95” value in assay [3] was found to be 3.125 µM. In addition, the “AB_CL6188 MITC95” value in assay [4] is 12.5 µM.

Take `CC1(C)[C@H](NC(=O)/C(=N\O[C@](C)(C(=O)O)[C@H]2CCc3cc(C(=N)NC4CCC(N)(CO)CC4)ccc3O2)c2csc(N)n2)C(=O)N1OS(=O)(=O)O` (stereo partly drawn) [Compound 69, (S)-2-((R)-6-(N-((1r,4R)-4-amino-4-(hydroxymethyl)cyclohexyl)carbamimidoyl)chroman-2-yl)-2-((((Z)-1-(2-aminothiazol-4-yl)-2-(((S)-2,2-dimethyl-4-oxo-1-(sulfooxy)azetidin-3-yl)amino)-2-oxoethylidene)amino)oxy)propanoic acid]: the “KP_CL6569 MITC95” value in assay [1] came to 0.3906 µM. Besides, the “EC_CLB30016 MITC95” value in assay [2] is 6.25 µM. Also, the “PA_CL5701 MITC95” value in assay [3] turned out to be 1.563 µM. Moreover, in assay [4], the “AB_CL6188 MITC95” value turned out to be 4.688 µM.

Consider `CC1(C)[C@H](NC(=O)/C(=N\O[C@](C)(C(=O)O)[C@H]2CCc3cc(C(=N)N[C@H]4C[C@](N)(CCO)C4)ccc3O2)c2csc(N)n2)C(=O)N1OS(=O)(=O)O` [Compound 86, (S)-2-((R)-6-(N-((1s,3S)-3-amino-3-(2-hydroxyethyl)cyclobutyl)carbamimidoyl)chroman-2-yl)-2-((((Z)-1-(2-aminothiazol-4-yl)-2-(((S)-2,2-dimethyl-4-oxo-1-(sulfooxy)azetidin-3-yl)amino)-2-oxoethylidene)amino)oxy)propanoic acid], for which, in assay [1], the “KP_CL6569 MITC95” value worked out at 0.3906 µM. The “EC_CLB30016 MITC95” value in assay [2] is 6.25 µM. Besides, the “PA_CL5701 MITC95” value in assay [3] turned out to be 1.563 µM. Also, the “AB_CL6188 MITC95” value in assay [4] was determined as 6.25 µM.

Regarding `CC1(C)[C@H](NC(=O)/C(=N\O[C@](C)(C(=O)O)[C@H]2CCc3cc(C(=N)N[C@H]4C[C@](CN)(CO)C4)ccc3O2)c2csc(N)n2)C(=O)N1OS(=O)(=O)O` [Compound 78, (S)-2-((R)-6-(N-((1r,3R)-3-(aminomethyl)-3-(hydroxymethyl)cyclobutyl)carbamimidoyl)chroman-2-yl)-2-((((Z)-1-(2-aminothiazol-4-yl)-2-(((S)-2,2-dimethyl-4-oxo-1-(sulfooxy)azetidin-3-yl)amino)-2-oxoethylidene)amino)oxy)propanoic acid], in assay [1], the “KP_CL6569 MITC95” value was 0.3906 µM. The “EC_CLB30016 MITC95” value in assay [2] was determined as 6.25 µM. In assay [3], the “PA_CL5701 MITC95” value came to 1.563 µM. Further, in assay [4], the “AB_CL6188 MITC95” value stood at 4.688 µM.

`CC1(C)[C@H](NC(=O)/C(=N\O[C@](C)(C(=O)O)[C@H]2CCc3cc(C(=N)N[C@H]4C[C@H]5CC[C@@H](C4)N5)ccc3O2)c2csc(N)n2)C(=O)N1OS(=O)(=O)O` [Compound 136, (S)-2-((R)-6-(N-((1R,3r,5S)-8-azabicyclo[3.2.1]octan-3-yl)carbamimidoyl)chroman-2-yl)-2-((((Z)-1-(2-aminothiazol-4-yl)-2-(((S)-2,2-dimethyl-4-oxo-1-(sulfooxy)azetidin-3-yl)amino)-2-oxoethylidene)amino)oxy)propanoic acid]: the “KP_CL6569 MITC95” value in assay [1] was 0.7813 µM. The “PA_CL5701 MITC95” value in assay [3] came out at 1.563 µM. Moreover, the “AB_CL6188 MITC95” value in assay [4] was found to be 6.25 µM.

Regarding `CC1(C)[C@H](NC(=O)/C(=N\O[C@](C)(C(=O)O)[C@H]2CCc3cc(C(=N)N[C@]4(C)CC[C@](N)(CO)CC4)ccc3O2)c2csc(N)n2)C(=O)N1OS(=O)(=O)O` [Compound 135, (S)-2-((R)-6-(N-((1r,4R)-4-amino-4-(hydroxymethyl)-1-methylcyclohexyl)-carbamimidoyl)chroman-2-yl)-2-((((Z)-1-(2-aminothiazol-4-yl)-2-(((S)-2,2-dimethyl-4-oxo-1-(sulfooxy)azetidin-3-yl)amino)-2-oxoethylidene)amino)oxy)propanoic acid], the “KP_CL6569 MITC95” value in assay [1] stood at 0.7813 µM. The “PA_CL5701 MITC95” value in assay [3] was 3.125 µM. For the same compound, the “AB_CL6188 MITC95” value in assay [4] was 12.5 µM.
